Organism: Rattus norvegicus
Assay: DrugMatrix - Regimen: Daily Repeat
Type: toxicity, organism-based, Sprague-Dawley
Design: regimen Daily Repeat, gender Male, age 6-8 weeks
Conditions: in vivo, po, route oral GAVAGE, vehicle .5 % CMC; for BASOPHIL / EOSINOPHIL / ERYTHROCYTE COUNT / HEMATOCRIT / HEMOGLOBIN / LEUKOCYTE COUNT / LYMPHOCYTE / MEAN CORPUSCULAR HEMOGLOBIN / MEAN CORPUSCULAR HEMOGLOBIN CONCENTRATION / MEAN CORPUSCULAR VOLUME / MONOCYTE / NEUTROPHIL / PLATELET COUNT: tissue Blood; for ALANINE AMINOTRANSFERASE / ALBUMIN / ALKALINE PHOSPHATASE / ASPARTATE AMINOTRANSFERASE / BLOOD UREA NITROGEN / CHLORIDE / CHOLESTEROL / CREATINE PHOSPHOKINASE / CREATININE / GLUCOSE / PHOSPHORUS / POTASSIUM / SODIUM / TOTAL BILIRUBIN / TOTAL PROTEIN: tissue Plasma
[1] = 0 mg/kg, 72 h, dose level Control, time 3 day
[2] = 0 mg/kg, 120 h, dose level Control, time 5 day
[3] = 5 mg/kg, 72 h, dose level Low, time 3 day
[4] = 5 mg/kg, 120 h, dose level Low, time 5 day

CN1C(=O)CN=C(c2ccccc2)c2cc([N+](=O)[O-])ccc21 [NIMETAZEPAM]
BASOPHIL [1]: 1.52% | EOSINOPHIL [1]: 0.98% | ERYTHROCYTE COUNT [1]: 6.96 x10E6/uL | HEMATOCRIT [1]: 44.65% | HEMOGLOBIN [1]: 13.62 G/DL | LEUKOCYTE COUNT [1]: 9.83 x10E3/uL | LYMPHOCYTE [1]: 76.48% | MEAN CORPUSCULAR HEMOGLOBIN [1]: 19.57 pg | MEAN CORPUSCULAR HEMOGLOBIN CONCENTRATION [1]: 30.47 G/DL | MEAN CORPUSCULAR VOLUME [1]: 64.22 fL | MONOCYTE [1]: 2.13% | NEUTROPHIL [1]: 18.6% | PLATELET COUNT [1]: 1217.17 x10E3/uL | ALANINE AMINOTRANSFERASE [1]: 41 u/L | ALBUMIN [1]: 3.77 G/DL | ALKALINE PHOSPHATASE [1]: 411.83 u/L | ASPARTATE AMINOTRANSFERASE [1]: 62.83 u/L | BLOOD UREA NITROGEN [1]: 15.17 mg/dL | CHLORIDE [1]: 104.33 MEQ/L | CHOLESTEROL [1]: 71.17 mg/dL | CREATINE PHOSPHOKINASE [1]: 123.5 u/L | CREATININE [1]: 0.55 mg/dL | GLUCOSE [1]: 182.67 mg/dL | PHOSPHORUS [1]: 11.23 mg/dL | POTASSIUM [1]: 7.03 MEQ/L | SODIUM [1]: 148 MEQ/L | TOTAL BILIRUBIN [1]: 0.57 mg/dL | TOTAL PROTEIN [1]: 6.85 G/DL | BASOPHIL [2]: 1.35% | EOSINOPHIL [2]: 0.43% | ERYTHROCYTE COUNT [2]: 6.96 x10E6/uL | HEMATOCRIT [2]: 44.35% | HEMOGLOBIN [2]: 13.98 G/DL | LEUKOCYTE COUNT [2]: 9.45 x10E3/uL | LYMPHOCYTE [2]: 80.83% | MEAN CORPUSCULAR HEMOGLOBIN [2]: 20.1 pg | MEAN CORPUSCULAR HEMOGLOBIN CONCENTRATION [2]: 31.52 G/DL | MEAN CORPUSCULAR VOLUME [2]: 63.72 fL | MONOCYTE [2]: 2.37% | NEUTROPHIL [2]: 14.05% | PLATELET COUNT [2]: 1298 x10E3/uL | ALANINE AMINOTRANSFERASE [2]: 42.17 u/L | ALBUMIN [2]: 3.77 G/DL | ALKALINE PHOSPHATASE [2]: 419 u/L | ASPARTATE AMINOTRANSFERASE [2]: 66.67 u/L | BLOOD UREA NITROGEN [2]: 16.67 mg/dL | CHLORIDE [2]: 103.17 MEQ/L | CHOLESTEROL [2]: 66.33 mg/dL | CREATINE PHOSPHOKINASE [2]: 148.33 u/L | CREATININE [2]: 0.58 mg/dL | GLUCOSE [2]: 196.83 mg/dL | PHOSPHORUS [2]: 11.8 mg/dL | POTASSIUM [2]: 6.47 MEQ/L | SODIUM [2]: 148.33 MEQ/L | TOTAL BILIRUBIN [2]: 0.53 mg/dL | TOTAL PROTEIN [2]: 6.77 G/DL | BASOPHIL [3]: 2.83% | EOSINOPHIL [3]: 0.3% | ERYTHROCYTE COUNT [3]: 7.13 x10E6/uL | HEMATOCRIT [3]: 44.5% | HEMOGLOBIN [3]: 13.9 G/DL | LEUKOCYTE COUNT [3]: 11.4 x10E3/uL | LYMPHOCYTE [3]: 76.5% | MEAN CORPUSCULAR HEMOGLOBIN [3]: 19.5 pg | MEAN CORPUSCULAR HEMOGLOBIN CONCENTRATION [3]: 31.2 G/DL | MEAN CORPUSCULAR VOLUME [3]: 62.43 fL | MONOCYTE [3]: 2.87% | NEUTROPHIL [3]: 16.73% | PLATELET COUNT [3]: 1489.33 x10E3/uL | ALANINE AMINOTRANSFERASE [3]: 36.67 u/L | ALBUMIN [3]: 3.67 G/DL | ALKALINE PHOSPHATASE [3]: 291 u/L | ASPARTATE AMINOTRANSFERASE [3]: 57 u/L | BLOOD UREA NITROGEN [3]: 11.67 mg/dL | CHLORIDE [3]: 102.67 MEQ/L | CHOLESTEROL [3]: 68.67 mg/dL | CREATINE PHOSPHOKINASE [3]: 130.67 u/L | CREATININE [3]: 0.5 mg/dL | GLUCOSE [3]: 173 mg/dL | PHOSPHORUS [3]: 11.97 mg/dL | POTASSIUM [3]: 6.37 MEQ/L | SODIUM [3]: 149.67 MEQ/L | TOTAL BILIRUBIN [3]: 0.27 mg/dL | TOTAL PROTEIN [3]: 6.6 G/DL | BASOPHIL [4]: 0.95% | EOSINOPHIL [4]: 2.55% | ERYTHROCYTE COUNT [4]: 7 x10E6/uL | HEMATOCRIT [4]: 43.15% | HEMOGLOBIN [4]: 13.8 G/DL | LEUKOCYTE COUNT [4]: 10.5 x10E3/uL | LYMPHOCYTE [4]: 75.25% | MEAN CORPUSCULAR HEMOGLOBIN [4]: 19.7 pg | MEAN CORPUSCULAR HEMOGLOBIN CONCENTRATION [4]: 32 G/DL | MEAN CORPUSCULAR VOLUME [4]: 61.5 fL | MONOCYTE [4]: 2.15% | NEUTROPHIL [4]: 18.45% | PLATELET COUNT [4]: 1383 x10E3/uL | ALANINE AMINOTRANSFERASE [4]: 34.67 u/L | ALBUMIN [4]: 3.57 G/DL | ALKALINE PHOSPHATASE [4]: 351 u/L | ASPARTATE AMINOTRANSFERASE [4]: 62.67 u/L | BLOOD UREA NITROGEN [4]: 11.67 mg/dL | CHLORIDE [4]: 102.67 MEQ/L | CHOLESTEROL [4]: 62.67 mg/dL | CREATINE PHOSPHOKINASE [4]: 168.67 u/L | CREATININE [4]: 0.6 mg/dL | GLUCOSE [4]: 170.33 mg/dL | PHOSPHORUS [4]: 13 mg/dL | POTASSIUM [4]: 7.1 MEQ/L | SODIUM [4]: 147 MEQ/L | TOTAL BILIRUBIN [4]: 0.4 mg/dL | TOTAL PROTEIN [4]: 6.37 G/DL
